Source: paper PMC7144195, “Synthesis, antitumor activity, and molecular docking study of 2-cyclopentyloxyanisole derivatives: mechanistic study of enzyme inhibition” (Journal of Enzyme Inhibition and Medicinal Chemistry, 2020)
Where two headings read alike, the source gives them in different places.

Key:
[1] = tested on: HePG2 cell line; assay: In vitro antitumor MTT assay, HePG2; format: cell-based
Experimental: (§1) The antitumor activity was performed by using the tetrazolium salt 3-(4,5-dimethyl-2-thiazolyl)-2,5-diphenyl-2H-tetrazolium bromide (MTT) assay in accordance with an established method.
(§2) Compounds 3a–c, 4a,b, 5a,b, 6a,b, 7a–e, 8, 9a–c, 10, 11, 12a–c, 13, and 14 were screened for their in vitro antitumor activity by using the standard 3-(4,5-dimethylthiazol-2-yl)-2,5-diphenyltetrazolium bromide (MTT) assay against five human cancers: HePG2, HCT-116, MCF-7, PC3, and HeLa cell lines. […].

[2] = tested on: HCT-116 cell line; assay: In vitro antitumor MTT assay, HCT-116; format: cell-based
Experimental: (§3) The antitumor activity was performed by using the tetrazolium salt 3-(4,5-dimethyl-2-thiazolyl)-2,5-diphenyl-2H-tetrazolium bromide (MTT) assay in accordance with an established method[39].

[3] = tested on: MCF-7 cell line; assay: In vitro antitumor MTT assay, MCF-7; format: cell-based
Experimental: as §3

[4] = tested on: PC3 cell line; assay: In vitro antitumor MTT assay, PC3; format: cell-based
Experimental: as §3

[5] = tested on: HeLa cell line; assay: In vitro antitumor MTT assay, HeLa; format: cell-based
Experimental: as §1, §2

[6] = tested on: HePG2, HCT-116, MCF-7, PC3, and HeLa cell lines; assay: In vitro antitumor MTT assay, panel of five human cancer cell lines (text summaries); format: cell-based; conditions: for IC50: read-out: IC50, antitumor activity, range over the tested cancer cell lines
Experimental: as §1, §2

[7] = Homo sapiens, HepG2; read-out: IC50 (µM) HePG2
[8] = Homo sapiens, HCT-116; read-out: IC50 (µM) HCT-116
[9] = Homo sapiens, MCF7; read-out: IC50 (µM) MCF-7
[10] = Homo sapiens, PC-3; read-out: IC50 (µM) PC3
[11] = Homo sapiens; read-out: IC50 (µM) HeLa
[12] = Homo sapiens, range over (all or some of) HePG2, HCT-116, MCF-7, PC3, HeLa
[13] = Homo sapiens, HepG2, read-out: IC50 (µM) HePG2
[14] = Homo sapiens, HCT-116, read-out: IC50 (µM) HCT-116
[15] = Homo sapiens, MCF7, read-out: IC50 (µM) MCF-7
[16] = Homo sapiens, PC-3, read-out: IC50 (µM) PC3
[17] = Homo sapiens, read-out: IC50 (µM) HeLa

IC50 [1, 7] [µM] | IC50 [2, 8] [µM] | IC50 [3, 9] [µM] | IC50 [4, 10] [µM] | IC50 [5, 11] [µM] | IC50 [6, 12] [µM] | melting point [°C] | IC50 ([6]; range over (all or some of) HePG2, HCT-116, MCF-7, PC3, HeLa) [µM] | Structure (SMILES) | IC50 [1, 13] [µM] | IC50 [2, 14] [µM] | IC50 [3, 15] [µM] | IC50 [4, 16] [µM] | IC50 [5, 17] [µM] | IC50 ([6]; Homo sapiens) [µM] | antitumor activity against the tested cancer cell lines (in words) ([6]; all tested cancer cell lines)
5.4 ± 0.25 | 11.4 ± 1.26 | 7.1 ± 0.49 | 7.7 ± 0.57 | 6.2 ± 0.67 | 5.4 to 11.4 | – | – | CN(C)C/C=C/C(=O)Nc1cc2c(Nc3ccc(F)c(Cl)c3)ncnc2cc1O[C@H]1CCOC1 [Afatinib, afatinib, reference compound] | – | – | – | – | – | – | –
96 ± 5.2 | > 100 | 56.1 ± 2.6 | 51.4 ± 3 | 59.1 ± 3.8 | – | – | – | COc1ccc(C=C2CCCC2=O)cc1OC1CCCC1 [Compound 3a, 2-(3-(Cyclopentyloxy)-4-methoxybenzylidene)cyclopentanone] | – | – | – | – | – | – | –
53.9 ± 3.7 | 80.6 ± 3.9 | 23.8 ± 1.5 | 19.3 ± 1.8 | 26.1 ± 1.9 | – | 245 to 247 | – | COc1ccc(C=C2CCCCC2=O)cc1OC1CCCC1 [Compound 3b, 2-(3-(Cyclopentyloxy)-4-methoxybenzylidene)cyclohexanone] | – | – | – | – | – | – | –
86.9 ± 4.5 | 93.5 ± 5.1 | > 100 | > 100 | 81.7 ± 4.7 | – | 250 to 252 | – | COc1ccc(C=C2CCCCCC2=O)cc1OC1CCCC1 [Compound 3c, 2-(3-(Cyclopentyloxy)-4-methoxybenzylidene)cycloheptanone] | – | – | – | – | – | – | –
73.4 ± 3.7 | 66.5 ± 3.8 | 92.4 ± 5.2 | 79 ± 4.1 | 84.3 ± 4.6 | – | 199 to 201 | – | COc1ccc(C2NC(=S)NC3=C2CCCC3)cc1OC1CCCC1 (stereo not shown) [Compound 5a, 4-(3-(Cyclopentyloxy)-4-methoxyphenyl)-3,4,5,6,7,8-hexahydroquinazoline-2(1H)-thione] | – | – | – | – | – | – | –
59.1 ± 3.5 | 61.1 ± 3.6 | 81.2 ± 4.3 | 55.2 ± 3.1 | 46.3 ± 3 | – | – | – | COc1ccc(C2NC(=S)NC3=C2CCCCC3)cc1OC1CCCC1 (stereo not shown) [Compound 5b, 4-(3-(Cyclopentyloxy)-4-methoxyphenyl)-1,3,4,5,6,7,8,9-octahydro-2H-cyclohepta[d]pyrimidine-2-thione] | – | – | – | – | – | – | –
18.5 ± 1.7 | 30.5 ± 1.8 | 28.6 ± 1.6 | 27.4 ± 2.1 | 19.1 ± 1.7 | 18.5 to 30.5 | 230 to 232 | – | COc1ccc(C2NC(=O)NC3=C2C(=O)CC(C)(C)C3)cc1OC1CCCC1 (stereo not shown) [Compound 6a, 4-(3-(Cyclopentyloxy)-4-methoxyphenyl)-7,7-dimethyl-4,6,7,8-tetrahydroquinazoline-2,5(1H,3H)-dione] | – | – | – | – | – | – | –
16.1 ± 1.4 | 25.4 ± 1.7 | 10.3 ± 1.1 | 17.9 ± 1.6 | 13.5 ± 1.4 | 10.3 to 25.4 | 233 to 235 | – | COc1ccc(C2NC(=S)NC3=C2C(=O)CC(C)(C)C3)cc1OC1CCCC1 (stereo not shown) [Compound 6b, 4-(3-(Cyclopentyloxy)-4-methoxyphenyl)-7,7-dimethyl-2-thioxo-2,3,4,6,7,8-hexahydroquinazolin-5(1H)-one] | – | – | – | – | – | – | –
41.8 ± 3 | 70.5 ± 3.5 | 60.5 ± 2.8 | 55.8 ± 3.2 | 43.5 ± 2.9 | 29.8 to 47 | 286 to 287 | 41.8 to 70.5 | COc1ccc(C2C3=C(CC(C)(C)CC3=O)NC3=C2C(=O)CC(C)(C)C3)cc1OC1CCCC1 [Compound 8, 9-(3-(Cyclopentyloxy)-4-methoxyphenyl)-3,3,6,6-tetramethyl-3,4,6,7,9,10-hexahydroacridine-1,8(2H,5H)-dione] | – | – | – | – | – | – | –
32.9 ± 2.3 | 48.1 ± 2.4 | 35.2 ± 1.9 | 29.2 ± 2.3 | 37.5 ± 2.5 | 29.2 to 48.1 | 190 to 192 | – | COc1ccc(C(=S)N2CCOCC2)cc1OC1CCCC1 [Compound 9a, (3-(Cyclopentyloxy)-4-methoxyphenyl)(morpholino)methanethione] | – | – | – | – | – | – | –
24.9 ± 1.9 | 39.1 ± 2.2 | 37.1 ± 2 | 31.5 ± 2.4 | 28.4 ± 2.3 | 24.9 to 39.1 | 193 to 195 | – | COc1ccc(C(=S)N2CCCCC2)cc1OC1CCCC1 [Compound 9b, (3-(Cyclopentyloxy)-4-methoxyphenyl)(piperidin-1-yl)methanethione] | – | – | – | – | – | – | –
36.3 ± 2.5 | 52.9 ± 2.7 | 48.9 ± 2.3 | 33.4 ± 2.6 | 40.6 ± 2.8 | 33.4 to 52.9 | 191 to 193 | – | COc1ccc(C(=S)N2CCN(C(=O)OC(C)(C)C)CC2)cc1OC1CCCC1 [Compound 9c, tert-Butyl 4-(3-(cyclopentyloxy)-4-methoxyphenylcarbonothioyl)piperazine-1-carboxylate] | – | – | – | – | – | – | –
49.9 ± 3.5 | 79.1 ± 3.8 | 64.1 ± 3.1 | 47.3 ± 2.9 | 52.5 ± 3.7 | 47.3 to 79.1 | 194 to 196 | – | COc1ccc(C(=S)Nc2ccc(F)cc2)cc1OC1CCCC1 [Compound 10, 3-(Cyclopentyloxy)-N-(4-fluorophenyl)-4-methoxybenzothioamide] | – | – | – | – | – | – | –
91.2 ± 4.8 | 96.8 ± 5.5 | 94.3 ± 4.7 | 88.6 ± 5 | 90.9 ± 4.9 | 88.6 to 96.8 | 189 to 191 | – | COc1ccc(C(=S)N(C)C)cc1OC1CCCC1 [Compound 11, 3-(Cyclopentyloxy)-4-methoxy-N,N-dimethylbenzothioamide] | – | – | – | – | – | – | –
45.2 ± 3.4 | 76 ± 3.6 | 71.6 ± 3.9 | 79.8 ± 4 | 65.7 ± 4.1 | – | > 300 | – | COc1ccc(-c2cc(-c3ccccc3)[nH]c(=O)c2C#N)cc1OC1CCCC1 [Compound 12a, 4-(3-(Cyclopentyloxy)-4-methoxyphenyl)-2-oxo-6-phenyl-1,2-dihydropyridine-3-carbonitrile] | – | – | – | – | – | – | –
38.1 ± 2.8 | 67.7 ± 3.5 | 58.3 ± 2.7 | 61.5 ± 3.3 | 45.7 ± 3.2 | – | > 300 | – | COc1ccc(-c2cc(-c3ccc(C)cc3)[nH]c(=O)c2C#N)cc1OC1CCCC1 [Compound 12b, 4-(3-(cyclopentyloxy)-4-methoxyphenyl)-2-oxo-6-(p-tolyl)-1,2-dihydropyridine-3-carbonitrile] | – | – | – | – | – | – | –
59.6 ± 4 | 83.4 ± 4.3 | 66.1 ± 3.7 | 73.5 ± 3.8 | 62.8 ± 3.9 | – | > 300 | – | COc1ccc(-c2cc(-c3ccc(Cl)c(Cl)c3)[nH]c(=O)c2C#N)cc1OC1CCCC1 [Compound 12c, 4-(3-(Cyclopentyloxy)-4-methoxyphenyl)-6-(3,4-dichlorophenyl)-2-oxo-1,2-dihydropyridine-3-carbonitrile] | – | – | – | – | – | – | –
20.1 ± 1.8 | 34.9 ± 1.9 | 9.62 ± 0.9 | 15.3 ± 1.3 | 12.5 ± 1.2 | 5.86 to 20.1 | 265 to 267 | – | COc1ccc(-c2nc3n(c(=O)c2C#N)C(=O)CS3)cc1OC1CCCC1 [Compound 14, 7-(3-(Cyclopentyloxy)-4-methoxyphenyl)-3,5-dioxo-2,3-dihydro-5H-thiazolo[3,2-a]pyrimidine-6-carbonitrile] | – | – | – | – | – | – | –

Structure (SMILES) | IC50 [1, 7] [µM] | IC50 [2, 8] [µM] | IC50 [3, 9] [µM] | IC50 [4, 10] [µM] | IC50 [5, 11] [µM] | IC50 [6, 12] [µM] | melting point [°C] | IC50 ([6]; range over (all or some of) HePG2, HCT-116, MCF-7, PC3, HeLa) [µM] | IC50 [1, 13] [µM] | IC50 [2, 14] [µM] | IC50 [3, 15] [µM] | IC50 [4, 16] [µM] | IC50 [5, 17] [µM] | IC50 ([6]; Homo sapiens) [µM] | antitumor activity against the tested cancer cell lines (in words) ([6]; all tested cancer cell lines)
COc1ccc(-c2nc3c4ccccc4c4ccccc4c3[nH]2)cc1OC1CCCC1 [Compound 7a, 2-(3-(Cyclopentyloxy)-4-methoxyphenyl)-1H-phenanthro[9,10-d]imidazole] | – | – | – | – | – | – | 290 to 292 | – | 78.2 ± 4.4 | 90.3 ± 4.9 | 89.8 ± 4.3 | > 100 | 77.6 ± 4.6 | 53.2 to 90.3 | –
COc1ccc(-c2nc3c4ccccc4c4ccccc4c3n2-c2ccc(C)cc2)cc1OC1CCCC1 [Compound 7c, 2-(3-(Cyclopentyloxy)-4-methoxyphenyl)-1-(4-methylphenyl)-1H-phenanthro[9,10-d]imidazole] | – | – | – | – | – | – | 291 to 294 | – | 57.1 ± 3.9 | 81.2 ± 4.2 | 65.3 ± 3.4 | 68.1 ± 3.5 | 53.2 ± 3.7 | 53.2 to 90.3 | –
COc1ccc(-c2nc3c4ccccc4c4ccccc4c3n2-c2ccc(F)cc2)cc1OC1CCCC1 [Compound 7d, 2-(3-(Cyclopentyloxy)-4-methoxyphenyl)-1-(4-fluorophenyl)-1H-phenanthro[9,10-d]imidazole] | – | – | – | – | – | – | 290 to 292 | – | > 100 | > 100 | > 100 | > 100 | > 100 | – | no antitumor activity
COc1ccc(-c2nc3c4ccccc4c4ccccc4c3n2-c2ccc(Cl)cc2)cc1OC1CCCC1 [Compound 7e, 2-(3-(Cyclopentyloxy)-4-methoxyphenyl)-1-(4-chlorophenyl)-1H-phenanthro[9,10-d]imidazole] | – | – | – | – | – | – | 294 to 296 | – | 29.9 ± 2.1 | 44.8 ± 2.3 | 42.4 ± 2.2 | 47 ± 2.7 | 38.1 ± 2.5 | 29.8 to 47 | –
COc1cccc2c1C(=O)c1c(O)c3c(c(O)c1C2=O)C[C@@](O)(C(=O)CO)C[C@@H]3O[C@H]1C[C@H](N)[C@H](O)[C@H](C)O1 [DOX, doxorubicin, reference compound] | – | – | – | – | – | 4.17 to 8.87 | – | – | – | – | – | – | – | – | –
